Laboratory results published in paper PMC11999280, “Design and screening of novel endosomal escape compounds that enhance functional delivery of oligonucleotides in vitro” (Molecular Therapy. Nucleic Acids, 2025).

Legend:
Assay type in all cases: cell-based
[1] = tested on: mCherry-GAL9 expressing HepG2 cells; assay: GAL9 recruitment assay, HepG2; conditions: calculated mean from >3 independent exp.
Procedure, shortened: (§1)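 Readout is GAL9 relocalization to damaged endosomes, scored as mCherry-GAL9 structures counted in confocal images after fixation in 4% paraformaldehyde and Hoechst 33342 nuclear staining. Compounds were applied in dose-response to stably expressing cells seeded one day earlier; three independent experiments with duplicate wells.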

[2] = tested on: mCherry-GAL9 expressing 16HBE cells; assay: GAL9 recruitment assay, 16HBE; conditions: calculated mean from >3 independent exp.
Procedure, shortened: as §1

[3] = tested on: mCherry-GAL9 expressing HEK293 cells; assay: GAL9 recruitment assay, HEK293; conditions: calculated mean from >3 independent exp.
Procedure, shortened: as §1

[4] = tested on: mCherry-GAL9 expressing SHSY5Y cells; assay: GAL9 recruitment assay, SHSY5Y; conditions: calculated mean from >3 independent exp.
Procedure, shortened: as §1

[5] = tested on: mCherry-GAL9 expressing HeLa cells; assay: GAL9 recruitment assay, HeLa; conditions: calculated mean from >3 independent exp.
Procedure, shortened: as §1

[6] = tested on: mCherry-GAL9 expressing U2OS cells; assay: GAL9 recruitment assay, U2OS; conditions: calculated mean from >3 independent exp.
Procedure, shortened: as §1

[7] = tested on: HeLa_Luc705 cells (pLuc/705 splice-switching reporter); assay: Functional 705-SSO delivery, luciferase splice-switching assay; conditions: HeLa-Luc705 + 2 µM SSO, mean from >3 independent experiments
Procedure, shortened: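 Splice correction was measured as firefly luciferase luminescence in Triton X-100 lysates taken 24 h after enhancer treatment. Before treatment, the 10,000 cells/well had spent 24 h with 1–2 μM 705-SSO (2′-OMe, phosphorothioate). For comparison, 100–200 nM SSO was lipofected with LF2000.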

[8] = tested on: mCherry-GAL9 expressing HuH7 cells; assay: GAL9 recruitment assay, HuH7; conditions: calculated mean from >3 independent exp.
Procedure, shortened: as §1

[9] = tested on: mCherry-GAL9 expressing NCI-H358 cells; assay: GAL9 recruitment assay, NCI-H358; conditions: calculated mean from >3 independent exp.
Procedure, shortened: as §1

## COc1nn(C2CCNCC2)cc1Nc1ncc(F)c(-c2c[nH]c3ccccc23)n1 [EEE23]
[1]; EEE 0.31 µM
  Gal9 response compared to reference: 0.006
[1]; EEE 0.62 µM
  Gal9 response compared to reference: 0.006
[1]; EEE 1.25 µM
  Gal9 response compared to reference: 0.007
[1]; EEE 2.5 µM
  Gal9 response compared to reference: 0.005
[1]; EEE 5 µM
  Gal9 response compared to reference: 0.004
[1]; EEE 10 µM
  Gal9 response compared to reference: 0.005
[2]; EEE 0.31 µM
  Gal9 response compared to reference: 0.008
[2]; EEE 0.62 µM
  Gal9 response compared to reference: 0.010
[2]; EEE 1.25 µM
  Gal9 response compared to reference: 0.010
[2]; EEE 2.5 µM
  Gal9 response compared to reference: 0.012
[2]; EEE 5 µM
  Gal9 response compared to reference: 0.017
[2]; EEE 10 µM
  Gal9 response compared to reference: 0.032
[3]; EEE 0.31 µM
  Gal9 response compared to reference: 0.019
[3]; EEE 0.62 µM
  Gal9 response compared to reference: 0.015
[3]; EEE 1.25 µM
  Gal9 response compared to reference: 0.015
[3]; EEE 2.5 µM
  Gal9 response compared to reference: 0.016
[3]; EEE 5 µM
  Gal9 response compared to reference: 0.025
[3]; EEE 10 µM
  Gal9 response compared to reference: 0.042
[4]; EEE 0.31 µM
  Gal9 response compared to reference: 0.013
[4]; EEE 0.62 µM
  Gal9 response compared to reference: 0.015
[4]; EEE 1.25 µM
  Gal9 response compared to reference: 0.013
[4]; EEE 2.5 µM
  Gal9 response compared to reference: 0.013
[4]; EEE 5 µM
  Gal9 response compared to reference: 0.017
[4]; EEE 10 µM
  Gal9 response compared to reference: 0.087
[5]; EEE 0.31 µM
  Gal9 response compared to reference: 0.004
[5]; EEE 0.62 µM
  Gal9 response compared to reference: 0.005
[5]; EEE 1.25 µM
  Gal9 response compared to reference: 0.004
[5]; EEE 2.5 µM
  Gal9 response compared to reference: 0.005
[5]; EEE 5 µM
  Gal9 response compared to reference: 0.005
[5]; EEE 10 µM
  Gal9 response compared to reference: 0.008
[6]; EEE 0.31 µM
  Gal9 response compared to reference: 0.011
[6]; EEE 0.62 µM
  Gal9 response compared to reference: 0.012
[6]; EEE 1.25 µM
  Gal9 response compared to reference: 0.015
[6]; EEE 2.5 µM
  Gal9 response compared to reference: 0.015
[6]; EEE 5 µM
  Gal9 response compared to reference: 0.012
[6]; EEE 10 µM
  Gal9 response compared to reference: 0.017
[7]; EEE 5 µM
  Luciferase expression compared to reference: 65.259
[7]; EEE 1-1.25 µM
  Luciferase expression compared to reference: 0.775
[7]; EEE 2.5 - 3 µM
  Luciferase expression compared to reference: 1.207
[8]; EEE 0.31 µM
  Gal9 response compared to reference: 0.007
[8]; EEE 0.62 µM
  Gal9 response compared to reference: 0.008
[8]; EEE 1.25 µM
  Gal9 response compared to reference: 0.009
[8]; EEE 2.5 µM
  Gal9 response compared to reference: 0.009
[8]; EEE 5 µM
  Gal9 response compared to reference: 0.010
[8]; EEE 10 µM
  Gal9 response compared to reference: 0.011
[9]; EEE 0.31 µM
  Gal9 response compared to reference: 0.013
[9]; EEE 0.62 µM
  Gal9 response compared to reference: 0.015
[9]; EEE 1.25 µM
  Gal9 response compared to reference: 0.012
[9]; EEE 2.5 µM
  Gal9 response compared to reference: 0.017
[9]; EEE 5 µM
  Gal9 response compared to reference: 0.017
[9]; EEE 10 µM
  Gal9 response compared to reference: 0.021

## COc1nn(C2CCNCC2)cc1Nc1ncc(C(F)(F)F)c(-c2c[nH]c3ccccc23)n1 [EEE24]
[1]; EEE 0.31 µM
  Gal9 response compared to reference: 0.010
[1]; EEE 0.62 µM
  Gal9 response compared to reference: 0.009
[1]; EEE 1.25 µM
  Gal9 response compared to reference: 0.009
[1]; EEE 2.5 µM
  Gal9 response compared to reference: 0.008
[1]; EEE 5 µM
  Gal9 response compared to reference: 0.008
[1]; EEE 10 µM
  Gal9 response compared to reference: 0.104
[2]; EEE 0.31 µM
  Gal9 response compared to reference: 0.010
[2]; EEE 0.62 µM
  Gal9 response compared to reference: 0.011
[2]; EEE 1.25 µM
  Gal9 response compared to reference: 0.011
[2]; EEE 2.5 µM
  Gal9 response compared to reference: 0.014
[2]; EEE 5 µM
  Gal9 response compared to reference: 0.035
[2]; EEE 10 µM
  Gal9 response compared to reference: 0.335
[3]; EEE 0.31 µM
  Gal9 response compared to reference: 0.024
[3]; EEE 0.62 µM
  Gal9 response compared to reference: 0.019
[3]; EEE 1.25 µM
  Gal9 response compared to reference: 0.014
[3]; EEE 2.5 µM
  Gal9 response compared to reference: 0.017
[3]; EEE 5 µM
  Gal9 response compared to reference: 0.100
[3]; EEE 10 µM
  Gal9 response compared to reference: 0.464
[4]; EEE 0.31 µM
  Gal9 response compared to reference: 0.016
[4]; EEE 0.62 µM
  Gal9 response compared to reference: 0.015
[4]; EEE 1.25 µM
  Gal9 response compared to reference: 0.010
[4]; EEE 2.5 µM
  Gal9 response compared to reference: 0.013
[4]; EEE 5 µM
  Gal9 response compared to reference: 0.070
[4]; EEE 10 µM
  Gal9 response compared to reference: 0.703
[5]; EEE 0.31 µM
  Gal9 response compared to reference: 0.005
[5]; EEE 0.62 µM
  Gal9 response compared to reference: 0.005
[5]; EEE 1.25 µM
  Gal9 response compared to reference: 0.004
[5]; EEE 2.5 µM
  Gal9 response compared to reference: 0.004
[5]; EEE 5 µM
  Gal9 response compared to reference: 0.008
[5]; EEE 10 µM
  Gal9 response compared to reference: 0.207
[6]; EEE 0.31 µM
  Gal9 response compared to reference: 0.014
[6]; EEE 0.62 µM
  Gal9 response compared to reference: 0.015
[6]; EEE 1.25 µM
  Gal9 response compared to reference: 0.014
[6]; EEE 2.5 µM
  Gal9 response compared to reference: 0.015
[6]; EEE 5 µM
  Gal9 response compared to reference: 0.026
[6]; EEE 10 µM
  Gal9 response compared to reference: 0.166
[7]; EEE 5 µM
  Luciferase expression compared to reference: 7.300
[7]; EEE 1-1.25 µM
  Luciferase expression compared to reference: 0.741
[7]; EEE 2.5 - 3 µM
  Luciferase expression compared to reference: 1.920
[8]; EEE 0.31 µM
  Gal9 response compared to reference: 0.010
[8]; EEE 0.62 µM
  Gal9 response compared to reference: 0.010
[8]; EEE 1.25 µM
  Gal9 response compared to reference: 0.011
[8]; EEE 2.5 µM
  Gal9 response compared to reference: 0.016
[8]; EEE 5 µM
  Gal9 response compared to reference: 0.019
[8]; EEE 10 µM
  Gal9 response compared to reference: 0.174
[9]; EEE 0.31 µM
  Gal9 response compared to reference: 0.019
[9]; EEE 0.62 µM
  Gal9 response compared to reference: 0.018
[9]; EEE 1.25 µM
  Gal9 response compared to reference: 0.016
[9]; EEE 2.5 µM
  Gal9 response compared to reference: 0.015
[9]; EEE 5 µM
  Gal9 response compared to reference: 0.021
[9]; EEE 10 µM
  Gal9 response compared to reference: 0.115
